Tests used:
[1] = test system: RCASBP(A)-EGFP (ASLV-A) in 293(TVA800) cells; format: cell-based, avian sarcoma and leukosis virus
[2] = test system: RCASBP(A)-EGFP (ASLV-A) in 293(TVA950) cells; format: cell-based, avian sarcoma and leukosis virus
[3] = 30 mM NH4Cl for 10 hours, added at 20 minutes or later after initiating infection
[4] = 30 mM NH4Cl for 10 hours, added at time of initiating infection or 10 minutes later
[5] = 6 hour block with 30 mM NH4Cl, QPCR
[6] = 6 hour block with 30 mM NH4Cl, flow cytometry
[7] = 15 mM MβCD, 15 minutes, no NH4Cl

Molecule	effect upon viral infectivity (QPCR) [1, 3]	effect on infection (QPCR of reverse-transcribed DNA) [1, 4]	viral infection during the period of inhibitor treatment ([1]; 30 mM NH4Cl, 6 hours)	level of infection (late viral DNA products) after NH4Cl release, relative to untreated cells [1, 5]	efficiency of infection (EGFP-positive cells) relative to untreated cells [1, 6]	infectivity on increasing time of NH4Cl treatment to 12 hours ([1]; 12 hours NH4Cl, data not shown)	effect upon viral infectivity (QPCR) [2, 3]	effect on infection (QPCR of reverse-transcribed DNA) [2, 4]	viral infection during the period of inhibitor treatment ([2]; 30 mM NH4Cl, 6 hours)	decrease in viral infectivity ([2]; 6 hour 30 mM NH4Cl, irrespective of whether cyclodextrin had been added)	number of viral DNA products after NH4Cl release, relative to untreated cells [2, 5]	efficiency of infection (EGFP-positive cells) relative to untreated cells [2, 6]	infectivity on increasing time of NH4Cl treatment to 12 hours ([2]; 12 hours NH4Cl, data not shown)	loss of infectivity ([1]; 15 mM MβCD 15 minutes combined with 6 hour 30 mM NH4Cl block at time of initiating infection)	effect of cyclodextrin treatment by itself on viral infectivity [1, 7]	effect of cyclodextrin treatment by itself on viral infectivity [2, 7]
Cl.N [NH4Cl, ammonium chloride]	greatly reduced effect	complete block	completely arrested	approximately 60%	85%	did not affect	greatly reduced effect	complete block	completely arrested	approximately 80%	10%	20%	further decrease			
methyl-β-cyclodextrin [MβCD]														50%	only a minor effect	only a minor effect
